Publication PMC4923153, “Protection of Primary Dopaminergic Midbrain Neurons by GPR139 Agonists Supports Different Mechanisms of MPP^+ and Rotenone Toxicity” (Frontiers in Cellular Neuroscience, 2016)

How the values were obtained:
[1] = target: norepinephrine transporter (Homo sapiens, UniProt P23975); assay: Inhibition of binding to the norepinephrine transporter (cross reactivity); settings: concentration not given
Experimental: (§1) None of the compounds were useful in vivo tools due to their unfavorable ADME properties including low whole brain exposure and brain/plasma ratio (Shi et al., [2011]). Cross reactivity with the DAT or the norepinephrine transporter was determined as described (Shi et al., [2011]).
(§2) As both 6-OHDA and MPP^+ are taken up via the DAT, it was not likely that the agonists mediated their protection against MPP^+ by merely blocking the DAT. However, to further exclude the possibility that the protection against MPP^+ by the agonist compound 3 is mediated by blocking MPP^+ uptake, rather than signaling through GPR139, DA and noradrenaline uptake in the presence of the agonist was tested. […] Ten micrometres (10 μM) compound 1 inhibited binding to the DAT or the norepinephrine transporter by 4% or −8%, respectively (Shi et al., [2011]) compound 2 inhibited binding to the DAT or the norepinephrine transporter 2% or −4%, respectively.

human GPR139 receptor = target: T1, human GPR139 receptor (Homo sapiens, UniProt Q6DWJ6); assay: GPR139 calcium mobilization assay (CHO-K1 cells stably expressing the receptor); type: cell-based; settings: Ca2+ mobilization, determined as described (Shi et al., 2011); read-out: EC50 (GPR139 agonist)
T1 construct: expressed in transfected cells; host or cells: CHO-K1
T1 sequence (Q6DWJ6 1-353): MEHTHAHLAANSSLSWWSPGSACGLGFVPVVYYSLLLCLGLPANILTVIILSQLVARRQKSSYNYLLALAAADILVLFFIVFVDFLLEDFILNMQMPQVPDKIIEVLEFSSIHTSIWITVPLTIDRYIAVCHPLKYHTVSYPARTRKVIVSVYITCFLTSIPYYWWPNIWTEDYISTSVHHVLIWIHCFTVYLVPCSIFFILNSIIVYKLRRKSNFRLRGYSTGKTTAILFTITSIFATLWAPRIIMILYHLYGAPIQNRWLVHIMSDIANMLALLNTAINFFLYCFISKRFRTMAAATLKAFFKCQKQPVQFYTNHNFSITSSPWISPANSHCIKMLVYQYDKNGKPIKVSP
Experimental: EC50 and IC50 for all compounds were determined as described (Shi et al., [2011]).
All compounds were further characterized using GPR139-based Ca^2+ mobilization assays (Figure 5).
Figure 5 Additional characterization of GPR139 compounds using kinetic fluorescence measurements and concentration-response determination in calcium mobilization assays. (A–D) Examples for the kinetic of relative fluorescence units (RFU) for compound 1 and 4 and related controls, involving a two-step addition protocol. (A) Cellular fluorescence response to addition of buffer (approximately at time 0:00 min) and a second addition of buffer at 3:20 min. (B) Cellular fluorescence response to addition of the Ca^2+ ionophore and reference compound for complete release of Ca^2+ from intracellular stores, ionomycin. (C) Cellular response to addition of 10 μM compound 1 at time 0:00. (D) Cellular fluorescence in response to antagonist compound 4 (at 0:00, 50 μM) and addition of agonist compound 1 at EC85 concentration. […]
Standard molecular cloning techniques were used to generate Chinese hamster ovary (CHO-K1) cells stably expressing the human GPR139 receptor. […] Calcium flux was measured using a Hamamatsu FDSS7000 imaging-based plate reader (Hamamatsu Photonics) using 480 nm excitation light and emitted fluorescent light passed through a 525 nm emission filter and detected by a CCD camera. […]

DAT = DAT (Homo sapiens, UniProt Q01959); assay: Inhibition of binding to the DAT (cross reactivity); settings: concentration not given
Experimental: as §1, §2

norepinephrine transporter, sequence (P23975 whole entry, species assumed): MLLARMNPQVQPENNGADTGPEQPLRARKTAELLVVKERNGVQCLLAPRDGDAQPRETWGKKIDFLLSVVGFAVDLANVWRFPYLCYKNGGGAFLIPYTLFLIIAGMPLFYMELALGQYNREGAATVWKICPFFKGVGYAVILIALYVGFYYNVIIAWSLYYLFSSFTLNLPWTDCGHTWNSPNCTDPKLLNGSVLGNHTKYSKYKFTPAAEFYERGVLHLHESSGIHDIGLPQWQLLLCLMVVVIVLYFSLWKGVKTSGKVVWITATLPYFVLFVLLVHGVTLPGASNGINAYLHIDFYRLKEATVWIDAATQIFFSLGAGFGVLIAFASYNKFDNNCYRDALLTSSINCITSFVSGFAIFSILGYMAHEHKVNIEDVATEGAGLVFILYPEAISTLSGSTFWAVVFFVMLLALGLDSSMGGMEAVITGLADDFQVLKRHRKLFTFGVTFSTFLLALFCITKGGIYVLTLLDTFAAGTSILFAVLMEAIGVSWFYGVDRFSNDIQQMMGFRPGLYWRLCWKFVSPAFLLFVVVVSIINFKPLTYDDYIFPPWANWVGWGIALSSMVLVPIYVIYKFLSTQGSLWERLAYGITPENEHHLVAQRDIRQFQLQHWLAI
DAT, sequence (Q01959 whole entry, species assumed): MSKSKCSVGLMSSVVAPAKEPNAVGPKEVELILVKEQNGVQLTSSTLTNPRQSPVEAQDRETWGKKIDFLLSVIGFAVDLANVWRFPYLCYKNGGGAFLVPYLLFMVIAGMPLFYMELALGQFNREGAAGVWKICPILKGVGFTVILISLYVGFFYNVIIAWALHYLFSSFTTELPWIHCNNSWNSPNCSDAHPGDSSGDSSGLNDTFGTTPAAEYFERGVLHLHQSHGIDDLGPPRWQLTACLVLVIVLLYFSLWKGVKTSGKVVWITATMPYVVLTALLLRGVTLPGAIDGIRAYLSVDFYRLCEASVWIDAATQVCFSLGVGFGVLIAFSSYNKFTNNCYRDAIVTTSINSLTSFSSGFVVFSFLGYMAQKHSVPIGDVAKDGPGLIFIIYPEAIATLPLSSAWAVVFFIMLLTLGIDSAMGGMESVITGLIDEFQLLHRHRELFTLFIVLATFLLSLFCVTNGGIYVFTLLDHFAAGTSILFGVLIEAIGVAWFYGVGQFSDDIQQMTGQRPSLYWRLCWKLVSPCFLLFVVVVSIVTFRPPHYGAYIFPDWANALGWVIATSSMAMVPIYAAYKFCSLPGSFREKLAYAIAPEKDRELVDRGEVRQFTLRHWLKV

With `CN(C)C1CCN(C(=O)CNC(=O)Cc2cccc3ccccc23)C1` (stereo not drawn) [compound 2, N-[2-(3-Dimethylamino-pyrrolidin-1-yl)-2-oxo-ethyl]-2-Naphthalen-1-yl-acetamide] the “inhibition of binding to the norepinephrine transporter” value [1] was −4%, the EC50 (human GPR139 receptor) was 530 nM and the “inhibition of binding to the DAT” value (DAT) was 2%.
